Assay results: patent publication US11840686B2, “Modulation of prekallikrein (PKK) expression” (Ionis Pharmaceuticals, Inc., priority 2013, dated 2023)
Strand notation (5' to 3'): a small letter for the sugar, then the base; units joined by * are phosphorothioate-linked, units joined directly phosphodiester-linked; [ ] holds rarer units or linkages, { } end groups; capitals alone tell only the bases. e = 2'-O-(2-methoxyethyl) (MOE); [5mC] = 5-methylcytosine; d = 2'-deoxy (DNA)

Tested on: human PKK mRNA
Experiment: Antisense inhibition of human PKK mRNA in HepaRG cells, 5,000 nM (Example 2)
Format: cell-based
Details: electroporation with 5,000 nM antisense oligonucleotide, approx. 24 hours, PKK mRNA by RT-PCR (RTS3454), relative to untreated control cells
Method in brief: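 Percent inhibition of PKK mRNA is relative to untreated control, with qRT-PCR (probe set RTS3454) values adjusted to total RNA by RIBOGREEN. Oligonucleotides, fully phosphorothioate 2′-MOE gapmers, were delivered at 5,000 nM by electroporation into 20,000 HepaRG cells/well for about 24 h.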

[1] = Table 9 experiment, HepaRG cells, 20,000 cells per well
[2] = Table 10 experiment, HepaRG cells, 20,000 cells per well

| Substance | % inhibition (Table 8, HepaRG cells) | % inhibition [1] | % inhibition [2] |
| --- | --- | --- | --- |
| 547422 (eA*e[5mC]*e[5mC]*eA*eT*d[5mC]*d[5mC]*dA*dT*dA*dG*dA*dT*dA*dA*eT*e[5mC]*eT*eT*eA; antisense) [compound 547422] | 70% | – | – |
| 547424 (eA*eG*eA*eG*e[5mC]*dT*d[5mC]*d[5mC]*d[5mC]*dT*dT*dG*dT*dG*dT*e[5mC]*e[5mC]*e[5mC]*eA*eT; antisense) [compound 547424] | 90% | – | – |
| 547425 (eT*eA*eA*e[5mC]*e[5mC]*dA*dG*dA*dG*d[5mC]*dT*d[5mC]*d[5mC]*d[5mC]*dT*eT*eG*eT*eG*eT; antisense) [compound 547425] | 85% | – | – |
| 547427 (eA*eA*eG*eA*eG*dT*dA*dA*d[5mC]*d[5mC]*dA*dG*dA*dG*d[5mC]*eT*e[5mC]*e[5mC]*e[5mC]*eT; antisense) [compound 547427] | 79% | – | – |
| 547428 (eT*e[5mC]*eA*eA*eA*dG*dA*dG*dT*dA*dA*d[5mC]*d[5mC]*dA*dG*eA*eG*e[5mC]*eT*e[5mC]; antisense) [compound 547428] | 78% | – | – |
| 547429 (eA*eA*eT*e[5mC]*eT*d[5mC]*dA*dA*dA*dG*dA*dG*dT*dA*dA*e[5mC]*e[5mC]*eA*eG*eA; antisense) [compound 547429] | 81% | – | – |
| 547430 (e[5mC]*eA*eA*eT*e[5mC]*dT*d[5mC]*dA*dA*dA*dG*dA*dG*dT*dA*eA*e[5mC]*e[5mC]*eA*eG; antisense) [compound 547430] | 70% | – | – |
| 547431 (e[5mC]*eA*eG*eT*eG*dT*dT*dA*d[5mC]*dA*d[5mC]*dA*dA*dT*d[5mC]*eT*e[5mC]*eA*eA*eA; antisense) [compound 547431] | 67% | – | – |
| 547432 (e[5mC]*e[5mC]*e[5mC]*eA*eG*dT*dG*dT*dT*dA*d[5mC]*dA*d[5mC]*dA*dA*eT*e[5mC]*eT*e[5mC]*eA; antisense) [compound 547432] | 90% | – | – |
| 547433 (eG*eT*e[5mC]*e[5mC]*e[5mC]*d[5mC]*dA*dG*dT*dG*dT*dT*dA*d[5mC]*dA*e[5mC]*eA*eA*eT*e[5mC]; antisense) [compound 547433] | 63% | – | – |
| 547434 (eA*eG*eA*eG*eT*dT*dT*dG*dT*dT*d[5mC]*d[5mC]*dT*d[5mC]*d[5mC]*eA*eA*e[5mC]*eA*eA; antisense) [compound 547434] | 54% | – | – |
| 547435 (antisense e[5mC]*eA*eA*eG*eA*dA*dG*dA*dG*dT*dT*dT*dG*dT*dT*e[5mC]*e[5mC]*eT*e[5mC]*e[5mC]) [compound 547435] | 85% | – | – |
| 547436 (antisense e[5mC]*eT*e[5mC]*e[5mC]*e[5mC]*d[5mC]*dA*dA*dG*dA*dA*dG*dA*dG*dT*eT*eT*eG*eT*eT) [compound 547436] | 0% | – | – |
| 547437 (antisense e[5mC]*eT*e[5mC]*eT*e[5mC]*d[5mC]*d[5mC]*d[5mC]*dA*dA*dG*dA*dA*dG*dA*eG*eT*eT*eT*eG) [compound 547437] | 50% | – | – |
| 547438 (antisense eG*eG*eG*e[5mC]*e[5mC]*dA*d[5mC]*dT*d[5mC]*dT*d[5mC]*d[5mC]*d[5mC]*d[5mC]*dA*eA*eG*eA*eA*eG) [compound 547438] | 82% | – | – |
| 547439 (antisense eT*e[5mC]*eT*eG*eA*dG*d[5mC]*dT*dG*dT*d[5mC]*dA*dG*d[5mC]*dT*eT*e[5mC]*eA*e[5mC]*e[5mC]) [compound 547439] | 85% | – | – |
| 547440 (antisense eT*e[5mC]*e[5mC]*eT*eA*dT*dG*dA*dG*dT*dG*dA*d[5mC]*d[5mC]*d[5mC]*eT*e[5mC]*e[5mC]*eA*e[5mC]) [compound 547440] | 67% | – | – |
| 547441 (antisense eG*eG*eT*eG*eT*d[5mC]*d[5mC]*dT*dA*dT*dG*dA*dG*dT*dG*eA*e[5mC]*e[5mC]*e[5mC]*eT) [compound 547441] | 62% | – | – |
| 547442 (antisense eT*eG*eG*eT*eG*dT*d[5mC]*d[5mC]*dT*dA*dT*dG*dA*dG*dT*eG*eA*e[5mC]*e[5mC]*e[5mC]) [compound 547442] | 42% | – | – |
| 547443 (antisense e[5mC]*e[5mC]*eA*e[5mC]*eT*dG*dG*dT*dG*dT*d[5mC]*d[5mC]*dT*dA*dT*eG*eA*eG*eT*eG) [compound 547443] | 70% | – | – |
| 547444 (antisense e[5mC]*eT*eA*eT*eA*dG*dA*dT*dG*d[5mC]*dG*d[5mC]*d[5mC]*dA*dA*eA*e[5mC]*eA*eT*e[5mC]) [compound 547444] | 71% | – | – |

| Substance | % inhibition (Table 8, HepaRG cells) | % inhibition [1] | % inhibition [2] |
| --- | --- | --- | --- |
| 547446 (antisense eT*eT*eG*eT*eG*dA*dG*dA*dA*dA*dG*dG*dT*dG*dT*eA*eT*e[5mC]*eT*eT) [compound 547446] | 84% | – | – |
| 547447 (antisense eA*eT*eT*eT*eG*dT*dG*dA*dG*dA*dA*dA*dG*dG*dT*eG*eT*eA*eT*e[5mC]) [compound 547447] | 80% | – | – |
| 547448 (antisense eT*eT*eA*eT*eT*dT*dG*dT*dG*dA*dG*dA*dA*dA*dG*eG*eT*eG*eT*eA) [compound 547448] | – | 75% | 83% |
| 547449 (antisense eT*eT*eT*eT*eA*dT*dT*dT*dG*dT*dG*dA*dG*dA*dA*eA*eG*eG*eT*eG) [compound 547449] | – | 71% | 73% |
| 547450 (antisense e[5mC]*eT*e[5mC]*eT*eT*dT*dT*dA*dT*dT*dT*dG*dT*dG*dA*eG*eA*eA*eA*eG) [compound 547450] | – | 71% | 67% |
| 547451 (antisense eT*eT*eG*eG*eT*dG*dA*dA*dT*dA*dA*dT*dA*dA*dT*e[5mC]*eT*e[5mC]*eT*eT) [compound 547451] | – | 75% | 64% |
| 547452 (antisense eG*eT*eT*eT*eT*dG*dG*dT*dG*dA*dA*dT*dA*dA*dT*eA*eA*eT*e[5mC]*eT) [compound 547452] | – | 47% | 62% |
| 547458 (antisense eT*eA*eT*e[5mC]*eA*dA*dG*dG*d[5mC]*dG*dA*dT*dA*dT*d[5mC]*eA*eT*eG*eA*eT) [compound 547458] | – | 84% | 64% |
| 547459 (antisense eG*eA*eG*eT*eT*dT*dT*dA*dT*d[5mC]*dA*dA*dG*dG*d[5mC]*eG*eA*eT*eA*eT) [compound 547459] | – | 28% | 51% |
| 547460 (antisense e[5mC]*eT*eG*eG*eA*dG*dT*dT*dT*dT*dA*dT*d[5mC]*dA*dA*eG*eG*e[5mC]*eG*eA) [compound 547460] | – | 72% | 75% |
| 547461 (antisense eG*eT*eA*eA*eT*dT*d[5mC]*dA*dA*dA*dG*dG*dA*dG*d[5mC]*e[5mC]*eT*eG*eG*eA) [compound 547461] | – | 49% | 55% |
| 547462 (antisense eG*eT*eG*eT*eA*dA*dT*dT*d[5mC]*dA*dA*dA*dG*dG*dA*eG*e[5mC]*e[5mC]*eT*eG) [compound 547462] | – | 59% | 54% |
| 547463 (antisense eT*eA*eG*eG*e[5mC]*dA*dT*dA*dT*dT*dG*dG*dT*dT*dT*eT*eT*eG*eG*eA) [compound 547463] | – | 74% | 84% |
| 547465 (antisense eA*eA*eA*eT*eT*dG*dT*dG*d[5mC]*dT*dT*dG*dT*dG*dT*e[5mC]*eA*e[5mC]*e[5mC]*eT) [compound 547465] | – | 88% | 85% |
| 547466 (antisense eG*eT*eA*eT*eA*dA*dA*dT*dT*dG*dT*dG*d[5mC]*dT*dT*eG*eT*eG*eT*e[5mC]) [compound 547466] | – | 82% | 43% |
| 547467 (antisense eT*eG*eG*eT*eA*dT*dA*dA*dA*dT*dT*dG*dT*dG*d[5mC]*eT*eT*eG*eT*eG) [compound 547467] | – | 80% | 65% |
| 547468 (antisense eG*eT*eT*eG*eG*dT*dA*dT*dA*dA*dA*dT*dT*dG*dT*eG*e[5mC]*eT*eT*eG) [compound 547468] | – | 61% | 46% |
| 547469 (antisense eT*eT*eA*e[5mC]*e[5mC]*d[5mC]*dA*dA*d[5mC]*dA*dG*dT*dT*dG*dG*eT*eA*eT*eA*eA) [compound 547469] | – | 67% | 50% |
| 547470 (antisense eT*e[5mC]*eG*eA*eG*dA*dA*dG*d[5mC]*d[5mC]*d[5mC]*d[5mC]*dA*dT*d[5mC]*e[5mC]*eG*eG*eT*eT) [compound 547470] | – | 70% | 68% |
| 547471 (antisense e[5mC]*e[5mC]*eT*eT*eT*d[5mC]*dT*d[5mC]*d[5mC]*dT*dT*d[5mC]*dG*dA*dG*eA*eA*eG*e[5mC]*e[5mC]) [compound 547471] | – | 58% | 43% |
